Earlier results, collected in patent US20040258838A1, “Method for preserving wood materials using precipitated copper compounds” (priority 2003, published 2004).

System: fish
Conditions: essentially 1 milligram per liter

[Cu] [copper]
level at which copper is extremely toxic to fish: below 1 part per million
